# Patent US20260356840A1, “[1,2,4]TRIAZOLO[1,5-A]PYRIMIDINONE WRN INHIBITORS” (Nimbus Wadjet, Inc., priority 2023, published 2026)
# Molecular target: T1, human Werner helicase (Uniprot Q14191, amino acids 517-1235 with L1074F point mutation), WRN-BV08 (Homo sapiens, UniProt Q14191, L1074F)
# T1 construct: Uniprot Q14191, amino acids 517-1235 with L1074F point mutation; TEV cleavable 8xHis tag (C, cleaved yes); made in house; host or cells: Sf9 insect cells (baculovirus, pFastBac)
# Experiment: WRN (BV08) ADP-Glo Assay
# Type: biochemical
# T1 sequence (Q14191 517-1235 L1074F): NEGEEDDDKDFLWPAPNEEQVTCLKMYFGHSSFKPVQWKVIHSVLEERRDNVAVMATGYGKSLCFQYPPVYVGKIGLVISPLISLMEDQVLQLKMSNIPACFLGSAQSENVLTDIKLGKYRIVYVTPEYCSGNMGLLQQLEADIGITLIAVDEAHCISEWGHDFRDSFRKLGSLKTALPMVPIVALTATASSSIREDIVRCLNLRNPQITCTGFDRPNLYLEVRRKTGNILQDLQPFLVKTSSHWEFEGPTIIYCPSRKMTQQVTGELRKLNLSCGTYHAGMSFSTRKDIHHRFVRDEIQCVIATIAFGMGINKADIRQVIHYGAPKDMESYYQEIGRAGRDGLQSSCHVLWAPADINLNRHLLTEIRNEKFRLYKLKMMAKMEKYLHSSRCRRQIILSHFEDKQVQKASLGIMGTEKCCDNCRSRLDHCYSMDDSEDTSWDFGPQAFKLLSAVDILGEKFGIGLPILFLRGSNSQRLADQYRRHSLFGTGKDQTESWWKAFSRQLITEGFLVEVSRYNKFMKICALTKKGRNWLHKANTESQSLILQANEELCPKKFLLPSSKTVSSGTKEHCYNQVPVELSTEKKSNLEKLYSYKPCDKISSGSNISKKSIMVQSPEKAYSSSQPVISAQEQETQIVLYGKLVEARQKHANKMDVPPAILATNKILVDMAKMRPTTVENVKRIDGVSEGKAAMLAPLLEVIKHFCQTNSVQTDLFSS
row,SMILES,IC50 [nM]
1,"CCc1c(N2CCN(C(=O)c3cnnn3C)CC2)c(=O)n2nc(-c3ccnc(OC)c3)nc2n1CC(=O)Nc1ccc(C(F)(F)F)cc1Cl [Compound I-63, N-[2-chloro-4-(trifluoromethyl)phenyl]-2-[5-ethyl-2-(2-methoxypyridin-4-yl)-6-[4-(1-methyl-1H-1,2,3-triazole-5-carbonyl)piperazin-1-yl]-7-oxo-4H,7H-[1,2,4]triazolo[1,5-a]pyrimidin-4-yl]acetamide]",5 to 50
2,"CCc1c(N2CCN(C(=O)C(F)(F)F)CC2)c(=O)n2nc(-c3ccnc(OC)c3)nc2n1CC(=O)Nc1ccc(C(F)(F)F)cc1Cl [Compound I-47, N-[2-chloro-4-(trifluoromethyl)phenyl]-2-[5-ethyl-2-(2-methoxypyridin-4-yl)-7-oxo-6-[4-(2,2,2-trifluoroacetyl)piperazin-1-yl]-4H,7H-[1,2,4]triazolo[1,5-a]pyrimidin-4-yl]acetamide]",50 to 100
3,"CCc1c(N2CCN(C(=O)c3cnn(C)c3)CC2)c(=O)n2nc(-c3ccnc(OC4CC4)c3)nc2n1CC(=O)Nc1ccc(C(F)(F)F)cc1Cl [Compound I-52, N-[2-chloro-4-(trifluoromethyl)phenyl]-2-[2-(2-cyclopropoxypyridin-4-yl)-5-ethyl-6-[4-(1-methyl-1H-pyrazole-4-carbonyl)piperazin-1-yl]-7-oxo-4H,7H-[1,2,4]triazolo[1,5-a]pyrimidin-4-yl]acetamide]",5 to 50
4,"CCc1c(N2CCN(C(=O)c3cc(C)no3)CC2)c(=O)n2nc(-c3ccnc(OC)c3)nc2n1CC(=O)Nc1ccc(C(F)(F)F)cc1Cl [Compound I-65, N-[2-chloro-4-(trifluoromethyl)phenyl]-2-[5-ethyl-2-(2-methoxypyridin-4-yl)-6-[4-(3-methyl-1,2-oxazole-5-carbonyl)piperazin-1-yl]-7-oxo-4H,7H-[1,2,4]triazolo[1,5-a]pyrimidin-4-yl]acetamide]",5 to 50

# Other lines, results leading:
row,IC50 [nM],SMILES
1,5 to 50,"CCc1c(N2CCN(C(=O)c3ncnc(C)c3O)CC2)c(=O)n2nc(-c3ccnc(OC)c3F)nc2n1CC(=O)Nc1ccc(C(F)(F)F)cc1Cl [Compound I-45, N-[2-chloro-4-(trifluoromethyl)phenyl]-2-[5-ethyl-2-(3-fluoro-2-methoxypyridin-4-yl)-6-[4-(5-hydroxy-6-methylpyrimidine-4-carbonyl)piperazin-1-yl]-7-oxo-4H,7H-[1,2,4]triazolo[1,5-a]pyrimidin-4-yl]acetamide]"
2,5 to 50,"CCc1c(N2CCN(C(=O)c3nn(C)cc3O)CC2)c(=O)n2nc(-c3ccnc(OC)c3)nc2n1CC(=O)Nc1ccc(C(F)(F)F)cc1Cl [Compound I-35, N-[2-chloro-4-(trifluoromethyl)phenyl]-2-{5-ethyl-6-[4-(4-hydroxy-1-methyl-1H-pyrazole-3-carbonyl)piperazin-1-yl]-2-(2-methoxypyridin-4-yl)-7-oxo-4H,7H-[1,2,4]triazolo[1,5-a]pyrimidin-4-yl}acetamide]"
3,5 to 50,"CCc1c(N2CCN(C(=O)c3cnn(C)c3)CC2)c(=O)n2nc(-c3cccnc3OC)nc2n1CC(=O)Nc1ccc(C(F)(F)F)cc1Cl [Compound I-54, N-[2-chloro-4-(trifluoromethyl)phenyl]-2-[5-ethyl-2-(2-methoxypyridin-3-yl)-6-[4-(1-methyl-1H-pyrazole-4-carbonyl)piperazin-1-yl]-7-oxo-4H,7H-[1,2,4]triazolo[1,5-a]pyrimidin-4-yl]acetamide]"
